Where two headings read alike, the source gives them in different places.
Assays:
[1] = target: T1, CYP1A2 (Homo sapiens, UniProt P05177); experiment: CYP inhibition: CYP1A2; type: in vitro ADME; conditions: human hepatic microsomes or recombinant isoenzymes
T1 construct: host or cells: human hepatic microsomes or recombinant isoenzyme (not distinguished)
Excerpt: It is possible that in certain clinical trial subjects, such agents may need to be adjusted for dosing or replaced by alternative agents that are not metabolized by CYP2D6, particularly when such agents may have a low therapeutic index.

[2] = test system: HT1080 cells; experiment: Anchorage-independent colony formation in HT1080 cells; type: cell-based, human; conditions: 10 and 50 nM, day 18; P=0.29 and 0.07
Description: Experimental Design. HT1080 cells growing in monolayer were trypsinized, counted and suspended in a 0.35% agar noble/1× complete DMEM solution at 37° C. at a concentration of 2,500 cells/mL. One ml of this solution was layered over a semisolid base consisting of 0.5 mL of 0.75% agar noble/1× complete DMEM in a six well tissue culture plate. […] Tissue culture plates were then returned to the incubator and colonies were allowed to form. […] On day 18 the vehicle-treated wells had colonies of sufficient size to count (>50 cells/colony). At this time, for increased visualization, 1.5 mL of a 2× working volume of (3-(4,5-Dimethylthiazol-2-yl)-2,5-diphenyltetrazolium bromide, a tetrazole) (MTT, Invitrogen, Cat #C35007) was added and the plates were returned to the incubator for 2 hours until colonies were stained by conversion of the MTT to purple formazan crystals. Colonies were then visually counted under a dissecting microscope.

[3] = test system: HeLa cells; experiment: Cell Titer Glo cytotoxicity / cell viability assay in HeLa cells (CC50); type: cell-based, human; conditions: any concentration tested
Excerpt: A dose-response analysis may be performed using the ELISA assay and conditions described above. The conditions for the dose-response ELISA are analogous to those described above. A series of, e.g., seven different concentrations may be analyzed. In parallel, a dose-response cytotoxicity assay may be performed using Cell Titer Glo (Promega) under the same conditions as the ELISA to ensure that the inhibition of VEGF expression was not due to the cytotoxicity.
Experimental Design. HeLa (human cervical carcinoma) cell cultures were established under normoxic conditions (21% oxygen). HeLa cells increase VEGF production 4- to 5-fold in response to hypoxia. […] At the completion of treatment, the conditioned media were collected and the VEGF protein levels were assayed in an enzyme-linked immunosorbent assay (ELISA) with primary antibodies that recognize the soluble VEGF121 and VEGF165 isoforms (R & D Systems, Minneapolis, Minn., USA). To ensure that decreases in VEGF concentration were not due to cytotoxicity, cultures were assayed using a standard assay ([…]-GLO® Luminescent Cell Viability Assay; Promega, Madison, Wis., USA) that measures total cellular adenosine triphosphate (ATP) concentrations as an indicator of cell viability.

[4] = Phase 1 multiple-dose study in healthy volunteers: pharmacokinetics (Table 28); type: in vivo, human; conditions: for concentration at 24 h / Tmax: human, plasma, oral; for concentration at 24 h: read-out: C24 h
Description: Methods. The trial was a Phase 1, randomized, escalating multiple dose, single center study conducted in 2 stages.
Capsules contained 2 mg or 20 mg of active substance.
Capsules contained 20 mg or 25 mg of active substance.
Noncompartmental methods were used to compute Tmax, Cmax, and AUC. Dose proportionality and sex effect were evaluated using ANOVA on log transformed PK parameters using dose, sex, and dose by sex as fixed factors.

[5] = Respiratory safety pharmacology in awake telemeterized dogs; type: in vivo, beagle dogs; conditions: single oral doses of 30, 60, and 120 mg/kg, male dogs
[6] = test system: MDA MB 468 xenografts; experiment: Tumor perfusion by DCE-MRI in MDA-MB-468 xenografts; type: in vivo, athymic nude mice; conditions: 10 mg/kg oral QD
Excerpt: Experimental Design. Dynamic contrast-enhanced magnetic resonance imaging can be used preclinically and clinically to evaluate the anatomy of soft tissues, including the identification and accurate measurement of tumor volumes. In addition, evaluation of the intratumoral pharmacokinetics of contrast agents containing gadolinium can be used to measure vascular permeability characteristics. Coupling gadopentetate dimeglumine gadolinium to a […] like bovine serum albumin can reveal information about the necrotic (non-perfused) and non-necrotic (perfused) tumor volumes, and the percentage of vascular blood volume relative to the perfused tumor volume (known as the fractional blood volume [fBV]). Use of a […] tracer, gadopentetate dimeglumine, can reveal information regarding the volume transfer coefficient (K^trans), a variable that represents a combination of vascular permeability, vascular surface area, and blood flow.
Before each DCE-MRI scan, mice were injected intravenously with gadolinium-containing contrast dyes (bovine serum albumin-gadopentetate dimeglumine conjugate at ˜0.03 mmol/kg followed by gadopentetate dimeglumine at ˜0.2 mmol/kg). Baseline DCE-MRI measurements were taken on Day −1, test Compounds were administered on Day 0 through Day 5, and additional DCE-MRI measurements were taken on Days 1, 3, and 5. Image analyses were conducted with customized software. Total tumor volumes were measured by semi-automatically segmenting a region of interest around an anatomical image of the tumor. Tumor volumes of necrotic and non-necrotic tissues were measured by applying the same semi-automated segmentation process to a contrast dyed image. fBV and K^trans were computed using a standard Kety PK model.

[7] = Stage 1, 0.3 mg/kg BID, Day 1, mean
[8] = Stage 1, 0.3 mg/kg BID, Day 7, mean
[9] = Stage 1, 0.6 mg/kg BID, Day 1, mean
[10] = Stage 1, 0.6 mg/kg BID, Day 7, mean
[11] = healthy volunteers, all dose levels

T1 sequence (P05177 whole entry): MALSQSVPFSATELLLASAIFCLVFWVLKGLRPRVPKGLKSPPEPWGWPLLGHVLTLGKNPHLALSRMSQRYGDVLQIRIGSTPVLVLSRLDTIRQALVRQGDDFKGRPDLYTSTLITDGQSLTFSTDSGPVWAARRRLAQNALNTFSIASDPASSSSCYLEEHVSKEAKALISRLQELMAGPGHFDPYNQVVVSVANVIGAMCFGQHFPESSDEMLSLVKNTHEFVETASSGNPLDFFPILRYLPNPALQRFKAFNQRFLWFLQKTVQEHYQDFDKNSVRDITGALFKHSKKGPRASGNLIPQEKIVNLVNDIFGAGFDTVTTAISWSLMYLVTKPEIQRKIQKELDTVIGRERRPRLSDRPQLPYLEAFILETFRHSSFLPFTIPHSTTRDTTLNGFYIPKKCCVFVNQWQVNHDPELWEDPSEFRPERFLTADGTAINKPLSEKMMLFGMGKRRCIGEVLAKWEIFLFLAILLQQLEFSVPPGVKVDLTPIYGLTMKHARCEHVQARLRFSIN

Compound: COc1ccc(C2c3[nH]c4ccc(Cl)cc4c3CCN2C(=O)Oc2ccc(Cl)cc2)cc1 (racemic) [Compound #10]
- Inhibition of CYP1A2 [1]: No meaningful inhibition
- Number of anchorage-independent colonies formed [2]: modest trend toward a reduced number of colonies
- Cytotoxicity (cellular ATP) [3]: No cytotoxicity was observed
- AUC0-24 [4, 7]: 4310 ng·h/mL
- Cmax (after PM dose) [4, 7]: 480 ng/mL
- Dose-normalized AUC0-24 [4, 7]: 7.2 µg·h/mL/mg/kg
- Dose-normalized Cmax [4, 7]: 0.79 µg/mL/mg/kg
- Tmax (after PM dose) [4, 7]: 3.16 h
- AUC0-24 [4, 8]: 8440 ng·h/mL
- Cmax (after PM dose) [4, 8]: 590 ng/mL
- Dose-normalized AUC0-24 [4, 8]: 14.1 µg·h/mL/mg/kg
- Dose-normalized Cmax [4, 8]: 0.99 µg/mL/mg/kg
- AUC0-24 [4, 9]: 10100 ng·h/mL
- Cmax (after PM dose) [4, 9]: 970 ng/mL
- Dose-normalized AUC0-24 [4, 9]: 8.4 µg·h/mL/mg/kg
- Dose-normalized Cmax [4, 9]: 0.81 µg/mL/mg/kg
- Tmax (after PM dose) [4, 9]: 3.17 h
- AUC0-24 [4, 10]: 18600 ng·h/mL
- Cmax (after PM dose) [4, 10]: 1160 ng/mL
- Dose-normalized AUC0-24 [4, 10]: 15.5 µg·h/mL/mg/kg
- Dose-normalized Cmax [4, 10]: 0.97 µg/mL/mg/kg
- Dose-normalized AUC0-24 ([4]; Stage 1, […] BID, Day 1, mean): 7.5 µg·h/mL/mg/kg
- Dose-normalized Cmax ([4]; Stage 1, […] BID, Day 1, mean): 0.82 µg/mL/mg/kg
- Cmax (after PM dose) ([4]; Stage 1, […] BID, Day 7, mean): 2470 ng/mL
- Dose-normalized AUC0-24 ([4]; Stage 1, […] BID, Day 7, mean): 13.7 µg·h/mL/mg/kg
- Dose-normalized Cmax ([4]; Stage 1, […] BID, Day 7, mean): 1.03 µg/mL/mg/kg
- Dose-normalized AUC0-24 ([4]; Stage 2, […] TID, Day 1, mean): 7.7 µg·h/mL/mg/kg
- Dose-normalized Cmax ([4]; Stage 2, […] TID, Day 1, mean): 0.51 µg/mL/mg/kg
- Tmax (after PM dose) ([4]; Stage 2, […] TID, Day 1, mean): 2.50 h
- Cmax (after PM dose) ([4]; Stage 2, […] TID, Day 7, mean): 4650 ng/mL
- Dose-normalized AUC0-24 ([4]; Stage 2, […] TID, Day 7, mean): 16.4 µg·h/mL/mg/kg
- Dose-normalized Cmax ([4]; Stage 2, […] TID, Day 7, mean): 0.98 µg/mL/mg/kg
- concentration at 24 h ([4]; both sexes, 0.3 mg/kg, Stage 1, 0.3 mg/kg BID, Day 1, mean): 94 ng/mL
- concentration at 24 h ([4]; both sexes, 0.3 mg/kg, Stage 1, 0.3 mg/kg BID, Day 7, mean): 210 ng/mL
- concentration at 24 h ([4]; both sexes, 0.6 mg/kg, Stage 1, 0.6 mg/kg BID, Day 1, mean): 260 ng/mL
- concentration at 24 h ([4]; both sexes, 0.6 mg/kg, Stage 1, 0.6 mg/kg BID, Day 7, mean): 540 ng/mL
- Tmax ([4]; both sexes, healthy volunteers, Stage 1 and Stage 2, read-out: Mean Tmax): ~3 h
- Tmax ([4]; both, Stage 1, 1.2 mg/kg BID, Day 1, mean, read-out: Tmax (after PM dose)): 3 h
- Oral bioavailability ([4]; healthy volunteers): orally bioavailable
- Differences in Cmax or AUC0-24 between males and females ([4]; healthy volunteers, ANOVA): no significant differences
- Accumulation (Day 1 to Day 7) when dosed continuously [4, 11]: ~2 fold
- Target trough plasma concentration (~0.1 to […]) [4, 11]: achieved and maintained
- Lag time until appearance in plasma ([4]; healthy volunteers, oral capsules): ~30 min
- Changes in respiratory rate, core body temperature, arterial blood gases, arterial pH, or arterial bicarbonate [5]: no dose dependent or biologically significant changes
- Change in mean tumor fBV in non-necrotic tissue ([6]; Day 1 to Day 5): declined after Day 3
- Change in mean K^trans in non-necrotic tissue ([6]; Day −1 to Day 5): decreased
- Change in mean necrotic tumor volume ([6]; Day −1 to Day 5): rapidly increased
- Change in mean non-necrotic tumor volume ([6]; Day −1 to Day 5): decreased
- Change in mean total tumor volume ([6]; Day −1 to Day 5): little mean change

— patent US20120157401A1, “METHODS FOR TREATING NEUROFIBROMATOSIS” (PTC Therapeutics, Inc., priority 2009, published 2012)
